Like-named read-outs stand apart in the source and are kept apart here.
Experiment: Toxicokinetics test in the satellite groups (UPLC-MS/MS of rat plasma)
Type: in vivo
Conditions: for AUC(0-t) / Cmax / Tmax / half-life: SD, rat, plasma, po; for half-life: read-out: T1/2 mean (converted)
Experimental: SD rats (5 ~ 6 weeks, 3/group/sex) were randomly allocated to three treatment groups and given the same dosage as those in the repeated toxicity experiment for 28 days. […] Carbamazepine was chosen as the internal standard (IS). The blood samples were centrifuged to obtain plasma. Then, 300 μL of acetonitrile containing 40 ng of IS was added to 100 μL of plasma. After vortexing for 1 min, the mixture was centrifuged at 17,000 rpm for 15 min at 4 °C. The supernatant of each sample was injected into a UPLC–MS/MS system for determination. The injection volume was 1 μL. UPLC–MS analysis was performed on a Thermo Fisher Scientific Ultimate 3000 UPLC system (San Jose, USA) and an API 4000 QTRAP mass spectrometer (Foster City, USA) equipped with an ESI source. The mobile phase consisted of 2 solvents: (A) water containing 0.1% formic acid and (B) 100% acetonitrile. For MS, multiple reaction monitoring (MRM) in positive ion mode was used as the scanning mode for the main components and IS in the plasma samples. The dwell time (DT), collision energy (CE), quadrupole 1 pre-rod bias (Q1) and quadrupole 3 pre-rod bias (Q3) are listed in Table 3.

[1] = female, female rats, Day 1, highest dose (berberine 72.08, epiberberine 7.42, coptisine 7.42, palmatine 18.26, jatrorrhizine 2.80, columbamine 5.93 mg/kg)
[2] = female, female rats, Day 1, lowest dose (berberine 8.01, epiberberine 0.82, coptisine 1.38, palmatine 2.03, jatrorrhizine 0.31, columbamine 0.66 mg/kg)
[3] = female, female rats, Day 1, middle dose (berberine 24.03, epiberberine 2.47, coptisine 2.47, palmatine 6.09, jatrorrhizine 0.93, columbamine 1.98 mg/kg)
[4] = female, female rats, Day 28, highest dose (berberine 72.08, epiberberine 7.42, coptisine 7.42, palmatine 18.26, jatrorrhizine 2.80, columbamine 5.93 mg/kg)
[5] = female, female rats, Day 28, lowest dose (berberine 8.01, epiberberine 0.82, coptisine 1.38, palmatine 2.03, jatrorrhizine 0.31, columbamine 0.66 mg/kg)
[6] = female, female rats, Day 28, middle dose (berberine 24.03, epiberberine 2.47, coptisine 2.47, palmatine 6.09, jatrorrhizine 0.93, columbamine 1.98 mg/kg)
[7] = male, male rats, Day 1, highest dose (berberine 72.08, epiberberine 7.42, coptisine 7.42, palmatine 18.26, jatrorrhizine 2.80, columbamine 5.93 mg/kg)
[8] = male, male rats, Day 1, lowest dose (berberine 8.01, epiberberine 0.82, coptisine 1.38, palmatine 2.03, jatrorrhizine 0.31, columbamine 0.66 mg/kg)
[9] = male, male rats, Day 1, middle dose (berberine 24.03, epiberberine 2.47, coptisine 2.47, palmatine 6.09, jatrorrhizine 0.93, columbamine 1.98 mg/kg)
[10] = male, male rats, Day 28, highest dose (berberine 72.08, epiberberine 7.42, coptisine 7.42, palmatine 18.26, jatrorrhizine 2.80, columbamine 5.93 mg/kg)
[11] = male, male rats, Day 28, lowest dose (berberine 8.01, epiberberine 0.82, coptisine 1.38, palmatine 2.03, jatrorrhizine 0.31, columbamine 0.66 mg/kg)
[12] = male, male rats, Day 28, middle dose (berberine 24.03, epiberberine 2.47, coptisine 2.47, palmatine 6.09, jatrorrhizine 0.93, columbamine 1.98 mg/kg)

COc1cc2c(cc1O)-c1cc3ccc(OC)c(OC)c3c[n+]1CC2 [columbamine]
AUC(0-t) (female, 0.4 g/kg, female rats, Day 1, low dose TAZF 0.4 g/kg by gavage, read-out: AUC0-t): 71.4 ± 80.1 ng·h/mL | Cmax (female, 0.4 g/kg, female rats, Day 1, low dose TAZF 0.4 g/kg by gavage, read-out: Cmax): 30 ± 20.7 ng/mL | AUC(0-t) (female, 0.4 g/kg, female rats, Day 28, low dose TAZF 0.4 g/kg by gavage, read-out: AUC0-t): 68.1 ± 76.9 ng·h/mL | Cmax (female, 0.4 g/kg, female rats, Day 28, low dose TAZF 0.4 g/kg by gavage, read-out: Cmax): 30.3 ± 40 ng/mL | AUC(0-t) (female, 3.7 g/kg, female rats, Day 1, high dose TAZF 3.7 g/kg by gavage, read-out: AUC0-t): 41.1 ± 10 ng·h/mL | Cmax (female, 3.7 g/kg, female rats, Day 1, high dose TAZF 3.7 g/kg by gavage, read-out: Cmax): 37.7 ± 30.4 ng/mL | AUC(0-t) (female, 3.7 g/kg, female rats, Day 28, high dose TAZF 3.7 g/kg by gavage, read-out: AUC0-t): 12.2 ± 4.52 ng·h/mL | Cmax (female, 3.7 g/kg, female rats, Day 28, high dose TAZF 3.7 g/kg by gavage, read-out: Cmax): 2.98 ± 0.24 ng/mL | Tmax [1]: 0.5 h | AUC(0-t) (female, female rats, Day 1, highest dose (berberine 72.08, epiberberine 7.42, coptisine 7.42, palmatine 18.26, jatrorrhizine 2.80, columbamine 5.93 mg/kg), read-out: AUC0-t mean): 41.1 ng·h/mL | Cmax (female, female rats, Day 1, highest dose (berberine 72.08, epiberberine 7.42, coptisine 7.42, palmatine 18.26, jatrorrhizine 2.80, columbamine 5.93 mg/kg), read-out: Cmax mean): 37.7 ng/mL | half-life [1]: 8.24 h | Tmax [2]: 2.33 h | AUC(0-t) (female, female rats, Day 1, lowest dose (berberine 8.01, epiberberine 0.82, coptisine 1.38, palmatine 2.03, jatrorrhizine 0.31, columbamine 0.66 mg/kg), read-out: AUC0-t mean): 71.4 ng·h/mL | Cmax (female, female rats, Day 1, lowest dose (berberine 8.01, epiberberine 0.82, coptisine 1.38, palmatine 2.03, jatrorrhizine 0.31, columbamine 0.66 mg/kg), read-out: Cmax mean): 30 ng/mL | half-life [2]: 4.31 h | Tmax [3]: 0.83 h | AUC(0-t) (female, female rats, Day 1, middle dose (berberine 24.03, epiberberine 2.47, coptisine 2.47, palmatine 6.09, jatrorrhizine 0.93, columbamine 1.98 mg/kg), read-out: AUC0-t mean): 59.2 ng·h/mL | Cmax (female, female rats, Day 1, middle dose (berberine 24.03, epiberberine 2.47, coptisine 2.47, palmatine 6.09, jatrorrhizine 0.93, columbamine 1.98 mg/kg), read-out: Cmax mean): 39.6 ng/mL | half-life [3]: 7.78 h | Tmax [4]: 1.17 h | AUC(0-t) (female, female rats, Day 28, highest dose (berberine 72.08, epiberberine 7.42, coptisine 7.42, palmatine 18.26, jatrorrhizine 2.80, columbamine 5.93 mg/kg), read-out: AUC0-t mean): 12.2 ng·h/mL | Cmax (female, female rats, Day 28, highest dose (berberine 72.08, epiberberine 7.42, coptisine 7.42, palmatine 18.26, jatrorrhizine 2.80, columbamine 5.93 mg/kg), read-out: Cmax mean): 2.98 ng/mL | half-life [4]: 12.4 h | Tmax [5]: 0.42 h | AUC(0-t) (female, female rats, Day 28, lowest dose (berberine 8.01, epiberberine 0.82, coptisine 1.38, palmatine 2.03, jatrorrhizine 0.31, columbamine 0.66 mg/kg), read-out: AUC0-t mean): 68.1 ng·h/mL | Cmax (female, female rats, Day 28, lowest dose (berberine 8.01, epiberberine 0.82, coptisine 1.38, palmatine 2.03, jatrorrhizine 0.31, columbamine 0.66 mg/kg), read-out: Cmax mean): 30.3 ng/mL | half-life [5]: 10.9 h | Tmax [6]: 1.5 h | AUC(0-t) (female, female rats, Day 28, middle dose (berberine 24.03, epiberberine 2.47, coptisine 2.47, palmatine 6.09, jatrorrhizine 0.93, columbamine 1.98 mg/kg), read-out: AUC0-t mean): 9.42 ng·h/mL | Cmax (female, female rats, Day 28, middle dose (berberine 24.03, epiberberine 2.47, coptisine 2.47, palmatine 6.09, jatrorrhizine 0.93, columbamine 1.98 mg/kg), read-out: Cmax mean): 1.35 ng/mL | half-life [6]: 10.7 h | AUC(0-t) (male, 0.4 g/kg, male rats, Day 1, low dose TAZF 0.4 g/kg by gavage, read-out: AUC0-t): 153 ± 54.9 ng·h/mL | Cmax (male, 0.4 g/kg, male rats, Day 1, low dose TAZF 0.4 g/kg by gavage, read-out: Cmax): 32.1 ± 28.7 ng/mL | AUC(0-t) (male, 0.4 g/kg, male rats, Day 28, low dose TAZF 0.4 g/kg by gavage, read-out: AUC0-t): 31.1 ± 2.21 ng·h/mL | Cmax (male, 0.4 g/kg, male rats, Day 28, low dose TAZF 0.4 g/kg by gavage, read-out: Cmax): 44.2 ± 42.3 ng/mL | AUC(0-t) (male, 3.7 g/kg, male rats, Day 1, high dose TAZF 3.7 g/kg by gavage, read-out: AUC0-t): 276 ± 92 ng·h/mL | Cmax (male, 3.7 g/kg, male rats, Day 1, high dose TAZF 3.7 g/kg by gavage, read-out: Cmax): 46.5 ± 30.3 ng/mL | AUC(0-t) (male, 3.7 g/kg, male rats, Day 28, high dose TAZF 3.7 g/kg by gavage, read-out: AUC0-t): 65.1 ± 6.74 ng·h/mL | Cmax (male, 3.7 g/kg, male rats, Day 28, high dose TAZF 3.7 g/kg by gavage, read-out: Cmax): 16.4 ± 11.8 ng/mL | Tmax [7]: 4 h | AUC(0-t) (male, male rats, Day 1, highest dose (berberine 72.08, epiberberine 7.42, coptisine 7.42, palmatine 18.26, jatrorrhizine 2.80, columbamine 5.93 mg/kg), read-out: AUC0-t mean): 276 ng·h/mL | Cmax (male, male rats, Day 1, highest dose (berberine 72.08, epiberberine 7.42, coptisine 7.42, palmatine 18.26, jatrorrhizine 2.80, columbamine 5.93 mg/kg), read-out: Cmax mean): 46.5 ng/mL | half-life [7]: 10.9 h | Tmax [8]: 10 h | AUC(0-t) (male, male rats, Day 1, lowest dose (berberine 8.01, epiberberine 0.82, coptisine 1.38, palmatine 2.03, jatrorrhizine 0.31, columbamine 0.66 mg/kg), read-out: AUC0-t mean): 153 ng·h/mL | Cmax (male, male rats, Day 1, lowest dose (berberine 8.01, epiberberine 0.82, coptisine 1.38, palmatine 2.03, jatrorrhizine 0.31, columbamine 0.66 mg/kg), read-out: Cmax mean): 32.1 ng/mL | half-life [8]: 47.8 h | Tmax [9]: 1.83 h | AUC(0-t) (male, male rats, Day 1, middle dose (berberine 24.03, epiberberine 2.47, coptisine 2.47, palmatine 6.09, jatrorrhizine 0.93, columbamine 1.98 mg/kg), read-out: AUC0-t mean): 207 ng·h/mL | Cmax (male, male rats, Day 1, middle dose (berberine 24.03, epiberberine 2.47, coptisine 2.47, palmatine 6.09, jatrorrhizine 0.93, columbamine 1.98 mg/kg), read-out: Cmax mean): 41.7 ng/mL | half-life [9]: 59.9 h | Tmax [10]: 4.08 h | AUC(0-t) (male, male rats, Day 28, highest dose (berberine 72.08, epiberberine 7.42, coptisine 7.42, palmatine 18.26, jatrorrhizine 2.80, columbamine 5.93 mg/kg), read-out: AUC0-t mean): 65.1 ng·h/mL | Cmax (male, male rats, Day 28, highest dose (berberine 72.08, epiberberine 7.42, coptisine 7.42, palmatine 18.26, jatrorrhizine 2.80, columbamine 5.93 mg/kg), read-out: Cmax mean): 16.4 ng/mL | half-life [10]: 11.2 h | Tmax [11]: 0.83 h | AUC(0-t) (male, male rats, Day 28, lowest dose (berberine 8.01, epiberberine 0.82, coptisine 1.38, palmatine 2.03, jatrorrhizine 0.31, columbamine 0.66 mg/kg), read-out: AUC0-t mean): 31.1 ng·h/mL | Cmax (male, male rats, Day 28, lowest dose (berberine 8.01, epiberberine 0.82, coptisine 1.38, palmatine 2.03, jatrorrhizine 0.31, columbamine 0.66 mg/kg), read-out: Cmax mean): 44.2 ng/mL | half-life [11]: 7.52 h | Tmax [12]: 12 h | AUC(0-t) (male, male rats, Day 28, middle dose (berberine 24.03, epiberberine 2.47, coptisine 2.47, palmatine 6.09, jatrorrhizine 0.93, columbamine 1.98 mg/kg), read-out: AUC0-t mean): 90.6 ng·h/mL | Cmax (male, male rats, Day 28, middle dose (berberine 24.03, epiberberine 2.47, coptisine 2.47, palmatine 6.09, jatrorrhizine 0.93, columbamine 1.98 mg/kg), read-out: Cmax mean): 21.4 ng/mL | half-life [12]: 4.07 h | Systemic exposure after 28 days of administration vs single administration (rats, oral TAZF): much lower

— paper PMC9377102, “Toxicity and toxicokinetics of the ethanol extract of Zuojin formula” (BMC Complementary Medicine and Therapies, 2022)
